Data as given in patent US12336981B2, “Compounds and compositions for the inhibition of NAMPT” (Valo Health, Inc., priority 2010, dated 2025).
Where two headings read alike, the source gives them in different places.

What was measured:
NAMPT = target: T1, NAMPT (Homo sapiens, UniProt P43490); experiment: Biochemical inhibition assay: NAMPT enzymatic reaction, NMN quantified by mass spectrometry; conditions: read-out: Biochem IC50
T1 construct: His tag; host or cells: E. coli
Procedure, shortened: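 Inhibition of E. coli-expressed His-tagged human NAMPT, measured as NMN formation by mass spectrometry after a 30 min room-temperature reaction containing 1 μM NAM, 100 μM PRPP and 2.5 mM ATP.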

A2780 cells = experiment: In-vitro cell proliferation assay (SRB), A2780 cells; format: cell-based; conditions: Homo sapiens, A2780, 72 h, A2780 cells, 72 hours, read-out: A2780 IC50
Procedure, shortened: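 Growth inhibition was derived from background-corrected SRB absorbance (570 nm), measured on cells fixed in 6% TCA after three days of compound treatment under 5% CO2 at 37° C.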

T1 sequence (P43490 whole entry): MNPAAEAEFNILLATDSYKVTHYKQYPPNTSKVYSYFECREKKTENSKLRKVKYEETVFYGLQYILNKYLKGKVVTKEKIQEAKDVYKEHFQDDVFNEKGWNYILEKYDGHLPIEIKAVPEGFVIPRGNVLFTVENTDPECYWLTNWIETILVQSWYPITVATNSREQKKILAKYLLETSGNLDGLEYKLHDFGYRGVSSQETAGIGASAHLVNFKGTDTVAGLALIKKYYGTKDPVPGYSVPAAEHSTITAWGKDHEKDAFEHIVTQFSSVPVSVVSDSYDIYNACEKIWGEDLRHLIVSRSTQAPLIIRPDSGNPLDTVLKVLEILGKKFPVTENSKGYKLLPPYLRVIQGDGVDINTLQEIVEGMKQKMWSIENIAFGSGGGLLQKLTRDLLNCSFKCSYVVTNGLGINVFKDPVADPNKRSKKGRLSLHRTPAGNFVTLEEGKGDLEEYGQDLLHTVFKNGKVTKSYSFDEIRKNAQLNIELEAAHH

Row | SMILES | IC50 (NAMPT; NAMPT enzymatic reaction) [nM] | IC50 (A2780 cells; SRB) [nM] | IC50 (NAMPT; NAMPT enzymatic assay) [nM] | IC50 (A2780 cells; SRB assay) [nM]
1 | COc1ccccc1S(=O)(=O)c1ccc(CNC(=O)c2ccc3nccn3c2)cc1 [N-({4-[(2-methoxybenzene)sulfonyl]phenyl}methyl)imidazo[1,2-a]pyridine-6-carboxamide] | 26.5 | 15.3 | – | –
2 | N#Cc1cccc(S(=O)(=O)c2ccc(CNC(=O)c3cnc4nccn4c3)cc2)c1 | 5.9 | 19.2 | – | –
3 | Cc1nc(S(=O)(=O)c2ccc(CNC(=O)c3cc4ccncc4o3)cc2)ccc1F [N-{[4-(5-fluoro-6-methylpyridine-2-sulfonyl)phenyl]methyl}furo[2,3-c]pyridine-2-carboxamide] | – | 12.4 | 6.2 | –
4 | Cc1cccc(S(=O)(=O)c2ccc(CNC(=O)c3cc4ccncc4o3)cc2)c1 [N-({4-[(3-methylbenzene)sulfonyl]phenyl}methyl)furo[2,3-c]pyridine-2-carboxamide] | 2.3 | 5.3 | – | –
5 | CCOc1cccc(S(=O)(=O)c2ccc(CNC(=O)c3ccc4nccn4c3)cc2)c1F | 5 | 6.2 | – | –
6 | O=C(NCc1ccc(S(=O)(=O)c2cccc(C(F)(F)F)c2)cc1)c1ccc2nccn2c1 [N-[(4-{[3-(trifluoromethyl)benzene]sulfonyl}phenyl)methyl]imidazo[1,2-a]pyridine-6-carboxamide] | – | 1.72 | 8.42 | –
7 | Cc1cc(S(=O)(=O)c2ccc(CNC(=O)c3cc4ccncc4s3)cc2)ccc1F [N-({4-[(4-fluoro-3-methylbenzene)sulfonyl]phenyl}methyl)thieno[2,3-c]pyridine-2-carboxamide] | 7 | – | – | 2.9
8 | CCOc1cccc(S(=O)(=O)c2ccc(CNC(=O)c3cc4cnccc4[nH]3)cc2)c1 [N-({4-[(3-ethoxybenzene)sulfonyl]phenyl}methyl)-1H-pyrrolo[3,2-c]pyridine-2-carboxamide] | 7.7 | 3.5 | – | –
9 | COc1cccc(S(=O)(=O)c2ccc(CNC(=O)c3ccc4nccn4c3)cc2)c1OC [N-({4-[(2,3-dimethoxybenzene)sulfonyl]phenyl}methyl)imidazo[1,2-a]pyridine-6-carboxamide] | 68.7 | 24.9 | – | –
10 | Cc1cc(Cl)cnc1S(=O)(=O)c1ccc(CNC(=O)c2cnc3[nH]ncc3c2)cc1 [N-{[4-(5-chloro-3-methylpyridine-2-sulfonyl)phenyl]methyl}-1H-pyrazolo[3,4-b]pyridine-5-carboxamide] | – | 75.3 | 62.5 | –
11 | O=C(NCc1ccc(S(=O)(=O)c2cc(F)cc(C(F)(F)F)c2)cc1)c1cc2ccncc2o1 | – | 5 | 7.4 | –
12 | COc1cc(OC)cc(S(=O)(=O)c2ccc(CNC(=O)c3cc4cnccc4[nH]3)cc2)c1 | 4.4 | 1.5 | – | –
13 | O=C(NCc1ccc(S(=O)(=O)c2cccc(-n3cccn3)c2)cc1)c1cc2ccncc2s1 [N-[(4-{[3-(1H-pyrazol-1-yl)benzene]sulfonyl}phenyl)methyl]thieno[2,3-c]pyridine-2-carboxamide] | – | 0.1 | 1.5 | –
14 | Cc1ccc(S(=O)(=O)c2ccc(CNC(=O)c3cnc4nccn4c3)cc2)cc1Cl | 1.8 | 1.2 | – | –
15 | CCOc1ccccc1S(=O)(=O)c1ccc(CNC(=O)c2cnc3[nH]ncc3c2)cc1 | 49.3 | 26.9 | – | –
16 | O=C(NCc1ccc(S(=O)(=O)c2ccc(F)cc2C(F)(F)F)cc1)c1ccc2nccn2c1 | – | 15 | 4 | –
17 | CC(C)(C)c1cccc(S(=O)(=O)c2ccc(CNC(=O)c3cc4ccncc4s3)cc2)c1 | 10.5 | 9.1 | – | –
18 | CCCCOc1ccc(S(=O)(=O)c2ccc(CNC(=O)c3cnc4[nH]ncc4c3)cc2)cc1Cl | 4.5 | 11.1 | – | –
19 | O=C(NCc1ccc(S(=O)(=O)c2cccc(F)c2)cc1)c1cnc2[nH]ncc2c1 | 33.9 | 25.3 | – | –
20 | O=C(NCc1ccc(S(=O)(=O)c2ccc(C(F)(F)F)cc2C(F)(F)F)cc1)c1cc2ccncc2s1 [N-[(4-{[2,4-bis(trifluoromethyl)benzene]sulfonyl}phenyl)methyl]thieno[2,3-c]pyridine-2-carboxamide] | – | 4.3 | 21.5 | –
21 | CN1CCN(c2ccc(S(=O)(=O)c3ccc(CNC(=O)c4cc5cnccc5[nH]4)cc3)cc2)CC1 | – | 0.8 | 3 | –
22 | CCc1ccc(S(=O)(=O)c2ccc(CNC(=O)c3cc4ccncc4o3)cc2)cc1 [N-({4-[(4-ethylbenzene)sulfonyl]phenyl}methyl)furo[2,3-c]pyridine-2-carboxamide] | 5 | 7 | – | –
23 | CCCOc1ccc(S(=O)(=O)c2ccc(CNC(=O)c3ccc4nccn4c3)cc2)cc1 | 6.1 | 1.9 | – | –
24 | O=C(NCc1ccc(S(=O)(=O)c2ccc(F)cc2Cl)cc1)c1cnc2nccn2c1 | 14.4 | 100 to 1000 | – | –
25 | O=C(NCc1ccc(S(=O)(=O)c2c(Cl)cccc2Cl)cc1)c1cnc2nccn2c1 | 13.4 | 100 to 1000 | – | –

Row | SMILES | IC50 (NAMPT; NAMPT enzymatic reaction) [nM] | IC50 (A2780 cells; SRB) [nM] | IC50 (NAMPT; NAMPT enzymatic assay) [nM] | IC50 (A2780 cells; SRB assay) [nM]
26 | CCCCOc1ccc(S(=O)(=O)c2ccc(CNC(=O)c3ccc4nccn4c3)cc2)cc1 | 3.8 | 2.8 | – | –
27 | O=C(NCc1ccc(S(=O)(=O)c2csc(-c3cccc(F)c3)n2)cc1)c1ccc2nccn2c1 [N-({4-[2-(3-fluorophenyl)-1,3-thiazole-4-sulfonyl]phenyl}methyl)imidazo[1,2-a]pyridine-6-carboxamide] | – | 12.8 | 22.9 | –
28 | Cn1ncc2cc(S(=O)(=O)c3ccc(CNC(=O)c4ccc5nccn5c4)cc3)ccc21 [N-{[4-(1-methyl-1H-indazole-5-sulfonyl)phenyl]methyl}imidazo[1,2-a]pyridine-6-carboxamide] | – | 1.6 | 4 | –
29 | CN(C)S(=O)(=O)c1cccc(S(=O)(=O)c2ccc(CNC(=O)c3cnc4nccn4c3)cc2)c1 | – | 11.2 | 2 | –
30 | COc1cccc(S(=O)(=O)c2ccc(CNC(=O)c3ccc4nccn4c3)cc2)c1F [N-({4-[(2-fluoro-3-methoxybenzene)sulfonyl]phenyl}methyl)imidazo[1,2-a]pyridine-6-carboxamide] | 33 | 13.5 | – | –
31 | COc1ccc(F)c(S(=O)(=O)c2ccc(CNC(=O)c3cc4ccncc4s3)cc2)c1 | 2.3 | 12.8 | – | –
32 | COc1cc(S(=O)(=O)c2ccc(CNC(=O)c3cc4ccncc4s3)cc2)ccc1Cl | 2.6 | 2.3 | – | –
33 | COc1ccc(S(=O)(=O)c2ccc(CNC(=O)c3cnc4[nH]ncc4c3)cc2)cc1F [N-({4-[(3-fluoro-4-methoxybenzene)sulfonyl]phenyl}methyl)-1H-pyrazolo[3,4-b]pyridine-5-carboxamide] | 43 | 6 | – | –
34 | CCCCOc1ccc(S(=O)(=O)c2ccc(CNC(=O)c3ccc4nccn4c3)cc2)cc1F | 6.2 | 3.1 | – | –
35 | Cc1cccc(S(=O)(=O)c2ccc(CNC(=O)c3cc4cnccc4[nH]3)cc2)c1 [N-({4-[(3-methylbenzene)sulfonyl]phenyl}methyl)-1H-pyrrolo[3,2-c]pyridine-2-carboxamide] | 9 | – | – | 4
36 | CCOc1ccc(S(=O)(=O)c2ccc(CNC(=O)c3cc4ccncc4o3)cc2)c(C)c1 | 21.6 | 27.4 | – | –
37 | O=C(NCc1ccc(S(=O)(=O)c2ccc(C(F)(F)F)cc2C(F)(F)F)cc1)c1cnc2nccn2c1 | – | 96.4 | 18.8 | –
38 | O=C(NCc1cccc(S(=O)(=O)c2ccccc2)c1)c1cc2cnccc2[nH]1 [N-{[3-(benzenesulfonyl)phenyl]methyl}-1H-pyrrolo[3,2-c]pyridine-2-carboxamide] | > 30000 | – | – | > 30000
39 | Cc1c(F)cccc1S(=O)(=O)c1ccc(CNC(=O)c2ccc3nccn3c2)cc1 | 46.9 | 13.2 | – | –
40 | N#CC1(c2ccc(S(=O)(=O)c3ccc(CNC(=O)c4cc5cnccc5[nH]4)cc3)cc2)CCCC1 | – | 18.9 | 60.1 | –
41 | CCOc1ccc(S(=O)(=O)c2ccc(CNC(=O)c3cnc4[nH]ncc4c3)cc2)c(C)c1 | 108 | 66.7 | – | –
42 | Cc1ccccc1S(=O)(=O)c1ccc(CNC(=O)c2cc3ccncc3s2)cc1 [N-({4-[(2-methylbenzene)sulfonyl]phenyl}methyl)thieno[2,3-c]pyridine-2-carboxamide] | 10 | – | – | 22.2
43 | CN(C)CCc1cccc(S(=O)(=O)c2ccc(CNC(=O)c3cnc4nccn4c3)cc2)c1 | – | 100 to 1000 | 3.5 | –
44 | O=C(NCc1ccc(S(=O)(=O)c2cccc(N3CCCCC3)c2)cc1)c1cc2cnccc2[nH]1 | – | 3.3 | 14.4 | –
45 | O=C(NCc1ccc(S(=O)(=O)c2ccccc2Oc2ccccc2)cc1)c1cc2ccncc2s1 [N-({4-[(2-phenoxybenzene)sulfonyl]phenyl}methyl)thieno[2,3-c]pyridine-2-carboxamide] | 11 | – | – | 69.7
46 | Cn1ncc2cccc(S(=O)(=O)c3ccc(CNC(=O)c4cc5ccncc5o4)cc3)c21 [N-{[4-(1-methyl-1H-indazole-7-sulfonyl)phenyl]methyl}furo[2,3-c]pyridine-2-carboxamide] | – | 27.5 | 11.5 | –
47 | COc1ccc(F)c(S(=O)(=O)c2ccc(CNC(=O)c3cc4cnccc4[nH]3)cc2)c1 | 77.8 | 14.4 | – | –
48 | O=C(NCc1ccc(S(=O)(=O)c2c(Cl)cccc2Cl)cc1)c1cnc2[nH]ncc2c1 | 180 | 1000 to 10000 | – | –
49 | COc1c(Cl)cccc1S(=O)(=O)c1ccc(CNC(=O)c2cc3ccncc3o2)cc1 | 19.2 | 62.3 | – | –
50 | COc1cc(Cl)cc(S(=O)(=O)c2ccc(CNC(=O)c3cc4cnccc4[nH]3)cc2)c1 [N-({4-[(3-chloro-5-methoxybenzene)sulfonyl]phenyl}methyl)-1H-pyrrolo[3,2-c]pyridine-2-carboxamide] | 17 | 2.5 | – | –
